Experiment in all cases: NCI tumour cell line growth inhibition, 48 h
Assay [1] has as its system LXFL 529 NSCLC.
Assay [2] has as its system XF 498 CNS.
Assay [3] deals with DMS 273 small cell lung.
The test system of assay [4] is KM20L2 colon.
The subject of assay [5] is DMS 114 small cell lung.
The test system of assay [6] is M19-MEL melanoma.
For assay [7], the system named is DLD-1 colon.
For assay [8], the system named is RXF-631 renal.
In assay [9] the test system is HOP-18 NSCLC.
Assay [10] concerns P388 leukemia.
Assay [11] has as its system SN12K1 renal.
For assay [12], the system named is P388/ADR leukemia.

Values joined by “and” are separate entries in the source; they are usually repeats but may differ in a detail not shown here. Equal values may be shown once.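 Protocol summary: plate cells (96-well), add compound at 5 concentrations, incubate 48 h, interpolate endpoints linearly. GI50: concentration for 50% inhibition of growth. TGI: total growth inhibition.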

On to `NC(=O)CCCC(NCc1c2ccccc2nc2ccccc12)C(=O)O` (configuration not stated), for which the TGI is more than 100 µM in assay [1]; 61.8 µM in [2]; 86.7 µM in assay [3]; more than 100 µM in assay [4]; more than 100 µM in [5]; more than 100 µM in assay [6]. In assay [7], the TGI was more than 100 µM.

Consider `CCCCCCCSc1nc2c(C(=O)OCC)ncn2c2ccccc12`, for which the TGI in assay [1], in assay [2], in assay [3], in [4], in assay [5] and in assay [6] was more than 100 µM in each case.

Consider `N#CC(c1ccccc1)c1nc2ccc(=N)cc-2n(O)c1C(C#N)c1ccccc1` (configuration not stated), for which the TGI in assay [1], in [2], in [3], in assay [4], in [8] and in [9] was more than 100 µM each time. The TGI in assay [6] and in assay [7] was more than 100 µM throughout.

With `Cc1ccc(Oc2ccc(C)cc2[N+](=O)[O-])cc1`, the TGI was more than 100 µM in assay [1]; 64.5 µM in [2]; more than 100 µM in assay [3]; more than 100 µM in assay [4]; more than 100 µM in [5]; more than 100 µM in assay [8]. The TGI in assay [9], in [6] and in assay [7] was more than 100 µM each time.

As to `CC(=O)C(O)N1C(=O)C=CC1=O` (configuration not stated), the GI50 in assay [1] was 15.3 µM; in assay [3] it was 18 µM; in assay [4], 17.9 µM and 1.9 µM; in assay [5] it was 19.6 µM; in [9], 17.2 µM; in [6], 16.4 µM. Also, in assay [7], the GI50 is 9.71 µM. For the same compound, the TGI is 28.6 µM and 3.32 µM in assay [1]; 31.5 µM in [2]; 32.2 µM and 28.1 µM in assay [3]; 32.8 µM and 3.51 µM in assay [4]; 37.7 µM and 11.1 µM in assay [5]; 33.9 µM in assay [8]. Further, the TGI in assay [9] was 31.3 µM and 40.5 µM; in [6] it was 30.4 µM and 17.6 µM; in assay [7], 23.6 µM and 3.97 µM.

Consider `NC(=O)NN=C(CS)CS`, for which the TGI was found to be 47.4 µM in [10]; 45.1 µM in assay [3]; 36.4 µM in assay [4]; 87.5 µM in assay [5]; 41.6 µM in [11]; 66.4 µM in assay [9]. The TGI in [12] is more than 100 µM; in assay [6] it was 37.1 µM; in assay [7] it was more than 65.5 µM.

On to `O=S(=O)(Sc1ccc(Cl)cc1)c1ccc(Cl)cc1`, for which the TGI in assay [1] came out at 32.7 µM; in assay [2] it was 53.4 µM; in assay [3] it was 29.6 µM; in [4], 34.1 µM; in assay [5], 28.6 µM; in assay [6] it was 35.6 µM. Besides, in assay [7], the TGI came out at 31.6 µM.

Turning to `Cc1c2cc[n+](CCN3CCCCC3)cc2c(C)c2c1[nH]c1ccc(O)cc12`, the TGI is 17.1 µM in assay [3]; 34.5 µM in assay [4]; 21.6 µM in [5]; 20.3 µM in assay [11]; 37 µM in [9]; 31.8 µM in assay [12]. For the same compound, the values for the TGI in assay [6] and in assay [7] were 4.93 µM and 49.6 µM, respectively.

As to `CN(C)CCCNc1ccc2ncn3c4ccccc4c(=O)c1c23`, the TGI in assay [1] was more than 100 µM; in assay [4], 30.4 µM; in [5] it was more than 100 µM; in [8] it was 26.3 µM; in [9], 68.4 µM; in assay [6] it was 30.6 µM. The TGI in assay [7] stood at 39.6 µM.

The values above are taken from PubChem BioAssay (NCI).
